Measured values taken from patent publication US20250059139A1, “COMPOUNDS FOR TREATMENT OF CANCER” (THE JOHNS HOPKINS UNIVERSITY, priority 2021, published 2025).

Legend:
HIF-1α protein in tumors = details: daily oral 10 mg/kg/d; cited from earlier work
CWR22-RH PDXs = assay: RNA sequencing of in vivo growing CWR22-RH PDXs in castrate hosts; set-up: species or system human; details: TasQ 10 mg/kg/d orally vs. vehicle control
Experimental: RNA Sequencing Analysis of In vivo Growing Xenografts. This was performed as described previously (Brennen 2021; Zhu 2020) with read counts normalized per kilo base-pair gene length and per million reads library size (RPKM).
RNAseq analysis was performed on CWR22-RH PDX tissue growing in the compromised hypoxic TME of castrated hosts with or without daily oral TasQ (10 mg/kg/d). Such dosing produces optimal CWR22-RH growth inhibition (FIG. 1) consistent with downregulation of the expression of proliferation-associated target genes in addition to the AR and its target genes (Table 1A). In addition, such daily TasQ treatment lowers HIF-1α protein in tumors by >50% (Olsson 2010) suppressing HIF1-dependent cell survival target genes (Table 1B). […] As predicted at this drug level, elevated expression of AHR and a series of its target genes is observed (Table 1C).

HDAC4-NCoR1 complex = target: T1, HDAC4-NCoR1 complex (Homo sapiens, UniProt P56524); assay: SPR inhibition of HDAC4-NCoR1 interaction; format: binding
T1 construct: Full-length (fl) [A.A. 1-1082] recombinant human histone deacetylase 4 (rhHDAC4) protein; FLAG (N); GST (given as 'with or without'); host or cells: HEK293-T (HDAC4)
T1 sequence (P56524 whole entry, one chain of several): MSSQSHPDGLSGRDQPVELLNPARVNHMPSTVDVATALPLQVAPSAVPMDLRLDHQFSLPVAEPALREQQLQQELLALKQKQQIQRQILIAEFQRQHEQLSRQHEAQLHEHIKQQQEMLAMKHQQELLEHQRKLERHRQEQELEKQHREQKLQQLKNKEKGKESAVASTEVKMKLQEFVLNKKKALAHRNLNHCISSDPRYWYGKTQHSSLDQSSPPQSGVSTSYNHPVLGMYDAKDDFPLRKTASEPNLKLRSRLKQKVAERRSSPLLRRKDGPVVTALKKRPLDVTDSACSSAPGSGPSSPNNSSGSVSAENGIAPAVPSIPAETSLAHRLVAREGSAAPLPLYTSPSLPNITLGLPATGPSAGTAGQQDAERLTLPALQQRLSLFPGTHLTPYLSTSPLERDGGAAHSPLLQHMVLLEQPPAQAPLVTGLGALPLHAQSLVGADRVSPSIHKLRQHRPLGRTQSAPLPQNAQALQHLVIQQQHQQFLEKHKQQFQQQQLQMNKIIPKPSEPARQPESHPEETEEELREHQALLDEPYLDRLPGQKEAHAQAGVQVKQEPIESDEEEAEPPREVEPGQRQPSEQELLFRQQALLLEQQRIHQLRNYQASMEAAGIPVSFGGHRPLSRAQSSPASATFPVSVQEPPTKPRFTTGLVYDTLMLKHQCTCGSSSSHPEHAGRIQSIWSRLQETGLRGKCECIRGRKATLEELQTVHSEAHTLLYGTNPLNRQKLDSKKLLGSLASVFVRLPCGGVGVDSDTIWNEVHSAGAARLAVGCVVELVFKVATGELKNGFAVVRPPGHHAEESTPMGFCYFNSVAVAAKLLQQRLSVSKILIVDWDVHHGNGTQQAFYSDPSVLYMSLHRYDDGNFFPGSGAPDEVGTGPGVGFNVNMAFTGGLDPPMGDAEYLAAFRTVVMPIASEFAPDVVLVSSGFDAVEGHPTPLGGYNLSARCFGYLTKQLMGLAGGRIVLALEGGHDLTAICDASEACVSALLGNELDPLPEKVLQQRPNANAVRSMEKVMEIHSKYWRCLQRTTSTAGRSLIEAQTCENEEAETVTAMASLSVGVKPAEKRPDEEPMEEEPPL
Experimental: Surface Plasmon Resonance (SPR) Binding Analysis. SPR analysis was performed on the Biacore 3000™ system using CM5 sensor chips, certified buffers (HBS-P—10 mM HEPES, 0.15 M NaCl, pH 7.4, containing 0.005% v/v Surfactant P; HBS-EP-HBS-P with 3 mM EDTA) and reagents for immobilization and surface regeneration from Biacore, GE Healthcare, Uppsala Sweden. Evaluation of sensorgrams was performed using the BIA-evaluation Software version 4.1 and GraphPad Prism 4. Buffer of protein reagents were changed to HBS-P on Zeba spin desalting columns (Thermo Scientific) prior to being used in SPR analysis (Isaacs 2013).
C. Inhibition of HDAC4-NCoR1 interaction by TasQ. The interaction between HDAC4 and NCoR1 was studied either by injecting NCoR over immobilized HDAC4 or with an alternative orientation where HDAC4 was passed over a surface with covalently coupled NCoR1. Whether TasQ can inhibit the formation of the functional HDAC4-NCoR1 complex was tested by pre-incubation with NCoR1 or HDAC4.
To confirm that TasQ inhibits formation of the functional complex between HDAC4 and NCoR1, fl-NCoR1 in solution was injected over immobilized fl-HDAC4 after pre-incubation with TasQ in solution at concentrations ranging from 1 to 100 μM (FIG. 19). […] TasQ in solution inhibits this strong interaction by 50% at 10 μM (FIG. 20). […]

Which “lowering of HIF-1α protein in tumors” value (HIF-1α protein in tumors) does the source give for `COc1cccc2c1c(O)c(C(=O)N(C)c1ccc(C(F)(F)F)cc1)c(=O)n2C` [TasQ, Tasquinimod] here?
Its value is > 50%.

And the “AGR2, AHR Target Genes (Fold Increases by TasQ)” value (CWR22-RH PDXs)?
Its value is 5.5 fold.

And the “AHR, AHR Target Genes (Fold Increases by TasQ)” value (CWR22-RH PDXs)?
The value was 3.0 fold.

And the “ALDOC, HIF-1α Target Genes (Fold Decrease by TasQ)” value (CWR22-RH PDXs)?
Its value is −1.4 fold.

What about the “AR, AR Target Genes (Fold Decrease by TasQ)” value (CWR22-RH PDXs) of the same compound?
Its value is −2.0 fold.

What about the “BHLHE41, MEF-2 Target Genes (Fold Increase by TasQ)” value (CWR22-RH PDXs) of the same compound?
Its value is 2.9 fold.

What about the “BNIP3, HIF-1α Target Genes (Fold Decrease by TasQ)” value (CWR22-RH PDXs) of the same compound?
The value was −1.9 fold.

And the “CA12, MEF-2 Target Genes (Fold Increase by TasQ)” value (CWR22-RH PDXs)?
Its value is 2.7 fold.

What about the “CAPN2, MEF-2 Target Genes (Fold Increase by TasQ)” value (CWR22-RH PDXs) of the same compound?
Its value is 1.6 fold.

What about the “CDC6, Proliferation Target Genes (Fold Decrease by TasQ)” value (CWR22-RH PDXs) of the same compound?
The value was −1.5 fold.

What about the “CDT1, Proliferation Target Genes (Fold Decrease by TasQ)” value (CWR22-RH PDXs) of the same compound?
The value was −2.2 fold.

What about the “CEACAM1, MEF-2 Target Genes (Fold Increase by TasQ)” value (CWR22-RH PDXs) of the same compound?
The value was 1.8 fold.

What about the “CYP1B1, AHR Target Genes (Fold Increases by TasQ)” value (CWR22-RH PDXs) of the same compound?
Its value is 10.0 fold.

What about the “DTYMK, Proliferation Target Genes (Fold Decrease by TasQ)” value (CWR22-RH PDXs) of the same compound?
Its value is −1.6 fold.

And the “E2F1, Proliferation Target Genes (Fold Decrease by TasQ)” value (CWR22-RH PDXs)?
The value was −2.0 fold.

And the “EDN1, MEF-2 Target Genes (Fold Increase by TasQ)” value (CWR22-RH PDXs)?
The value was 15.0 fold.

What about the “GDF15, AHR Target Genes (Fold Increases by TasQ)” value (CWR22-RH PDXs) of the same compound?
Its value is 2.3 fold.

What about the “HILPDA, HIF-1α Target Genes (Fold Decrease by TasQ)” value (CWR22-RH PDXs) of the same compound?
Its value is −1.7 fold.

And the “IGF1, HIF-1α Target Genes (Fold Decrease by TasQ)” value (CWR22-RH PDXs)?
The value was −11.0 fold.

What about the “IGFBP2, HIF-1α Target Genes (Fold Decrease by TasQ)” value (CWR22-RH PDXs) of the same compound?
The value was −1.8 fold.

And the “IGFBP5, HIF-1α Target Genes (Fold Decrease by TasQ)” value (CWR22-RH PDXs)?
The value was −18.0 fold.

What about the “KLKP1, AR Target Genes (Fold Decrease by TasQ)” value (CWR22-RH PDXs) of the same compound?
The value was −2.3 fold.

What about the “LDHA, HIF-1α Target Genes (Fold Decrease by TasQ)” value (CWR22-RH PDXs) of the same compound?
The value was −1.5 fold.

And the “LOX, HIF-1α Target Genes (Fold Decrease by TasQ)” value (CWR22-RH PDXs)?
The value was −4.0 fold.

What about the “MCM2, Proliferation Target Genes (Fold Decrease by TasQ)” value (CWR22-RH PDXs) of the same compound?
The value was −1.9 fold.

What about the “MCM3, Proliferation Target Genes (Fold Decrease by TasQ)” value (CWR22-RH PDXs) of the same compound?
The value was −1.6 fold.

What about the “MCM5, Proliferation Target Genes (Fold Decrease by TasQ)” value (CWR22-RH PDXs) of the same compound?
The value was −2.0 fold.

And the “MKI67, Proliferation Target Genes (Fold Decrease by TasQ)” value (CWR22-RH PDXs)?
Its value is −1.7 fold.

And the “NKX3.1, AR Target Genes (Fold Decrease by TasQ)” value (CWR22-RH PDXs)?
The value was −2.3 fold.

What about the “NQO1, AHR Target Genes (Fold Increases by TasQ)” value (CWR22-RH PDXs) of the same compound?
The value was 2.9 fold.

What about the “NR4A1, MEF-2 Target Genes (Fold Increase by TasQ)” value (CWR22-RH PDXs) of the same compound?
The value was 1.4 fold.

And the “NR4A2, MEF-2 Target Genes (Fold Increase by TasQ)” value (CWR22-RH PDXs)?
Its value is 1.8 fold.

What about the “P4HA1, HIF-1α Target Genes (Fold Decrease by TasQ)” value (CWR22-RH PDXs) of the same compound?
Its value is −1.8 fold.

And the “PDK1, HIF-1α Target Genes (Fold Decrease by TasQ)” value (CWR22-RH PDXs)?
Its value is −1.7 fold.

And the “PTN, HIF-1α Target Genes (Fold Decrease by TasQ)” value (CWR22-RH PDXs)?
Its value is −6.1 fold.

And the “S100P, MEF-2 Target Genes (Fold Increase by TasQ)” value (CWR22-RH PDXs)?
Its value is 5.7 fold.

And the “SLC45A3, AR Target Genes (Fold Decrease by TasQ)” value (CWR22-RH PDXs)?
Its value is −3.7 fold.

And the “THB5, MEF-2 Target Genes (Fold Increase by TasQ)” value (CWR22-RH PDXs)?
The value was 8.0 fold.

What about the “TIPARP, AHR Target Genes (Fold Increases by TasQ)” value (CWR22-RH PDXs) of the same compound?
Its value is 3.4 fold.

What about the “TMPRSS2, AR Target Genes (Fold Decrease by TasQ)” value (CWR22-RH PDXs) of the same compound?
Its value is −1.9 fold.

And the “TNC, HIF-1α Target Genes (Fold Decrease by TasQ)” value (CWR22-RH PDXs)?
The value was −2.5 fold.

What about the “TTR, HIF-1α Target Genes (Fold Decrease by TasQ)” value (CWR22-RH PDXs) of the same compound?
Its value is −3.8 fold.

And the “VEGFB, HIF-1α Target Genes (Fold Decrease by TasQ)” value (CWR22-RH PDXs)?
Its value is −1.5 fold.

And the inhibition at 10 µM (HDAC4-NCoR1 complex; at 10 μM, read-out: inhibition of fl-NCoR1 binding to immobilized fl-HDAC4)?
Its inhibition at 10 µM is 50%.

And the IC50 (HDAC4-NCoR1 complex; sigmoidal dose-response fit, read-out: IC50 for competitive inhibition of fl-HDAC4 binding to immobilized NCoR1)?
The IC50 was 1.1 µM.
